Test results taken from ChEMBL document CHEMBL4038307, “Influence of a Basic Side Chain on the Properties of Hypoxia-Selective Nitro Analogues of the Duocarmycins: Demonstration of Substantial Anticancer Activity in Combination with Irradiation or Chemotherapy” (J Med Chem, 2017).
Active and inactive are the calls of the source. The rule behind the calls is not given here.

Columns and labels:
HT-29 [1] = experiment: Cytotoxicity against human HT-29 cells incubated for 4 hrs under hypoxic condition measured after 5 days by SRB assay; format: functional, cell-based
HT-29 [2] = experiment: Cytotoxicity against human HT-29 cells incubated for 4 hrs under oxic condition measured after 5 days by SRB assay; format: functional, cell-based
HT-29 [3] = experiment: Ratio of IC50 for human HT-29 cells under oxic condition to IC50 for human HT-29 cells under hypoxic condition; format: functional
SiHa [4] = experiment: Ratio of IC50 for human SiHa cells under oxic condition to IC50 for human SiHa cells under hypoxic condition; format: functional
SiHa [5] = experiment: Cytotoxicity against human SiHa cells incubated for 4 hrs under hypoxic condition measured after 5 days by SRB assay; format: functional, cell-based
SiHa [6] = experiment: Cytotoxicity against human SiHa cells incubated for 4 hrs under oxic condition measured after 5 days by SRB assay; format: functional, cell-based
SiHa [7] = experiment: Antitumor activity against human SiHa cells xenografted in CD-1 Foxn1 nude mouse assessed as log reduction in colony forming cells under hypoxic condition at 42 umol/kg, iv treated 5 mins after gamma irradiation measured after 18 hrs by excision assay; format: functional
NCI-H460 [8] = experiment: Antitumor activity against human H460 cells xenografted in CD-1 Foxn1 nude mouse assessed as reduction in colony forming cells under hypoxic condition at 75 umol/kg, iv treated 5 mins after gamma irradiation measured after 18 hrs by excision assay; format: functional, organism-based
NCI-H460 [9] = experiment: Antitumor activity against human H460 cells xenografted in CD-1 Foxn1 nude mouse assessed as log reduction in colony forming cells under hypoxic condition at 56 umol/kg, iv treated 5 mins after gamma irradiation measured after 18 hrs by excision assay; format: functional
Mus musculus [10] = experiment: Toxicity in CD-1 Foxn1 nude mouse xenografted with human SiHa cells assessed as death at 75 umol/kg, iv; settings: in vivo
Mus musculus [11] = experiment: Toxicity in CD-1 Foxn1 nude mouse xenografted with human H460 cells assessed as death at 75 umol/kg, iv; settings: in vivo
Mus musculus [12] = experiment: Toxicity in CD-1 Foxn1 nude mouse xenografted with human SiHa cells assessed as death at 13 umol/kg, iv; settings: in vivo
Mus musculus [13] = experiment: Toxicity in CD-1 Foxn1 nude mouse xenografted with human H460 cells assessed as death at 13 umol/kg, iv; settings: in vivo
NCI-H1299 = experiment: Antitumor activity against human H1299 cells xenografted in CD-1 Foxn1 nude mouse assessed as reduction in colony forming cells at 75 umol/kg, iv treated 5 mins after gamma irradiation measured after 18 hrs by excision assay; format: functional, organism-based
HCT-116 = experiment: Antitumor activity against human HCT116 cells xenografted in CD-1 Foxn1 nude mouse assessed as reduction in colony forming cells at 56 umol/kg, iv treated 5 mins after gamma irradiation measured after 18 hrs by excision assay; format: functional, organism-based
CWR22R = experiment: Antitumor activity against human 22Rv1 cells xenografted in CD-1 Foxn1 nude mouse assessed as reduction in colony forming cells under hypoxic condition at 30 umol/kg, iv treated 5 mins after gamma irradiation measured after 18 hrs by excision assay; format: functional, organism-based
NCI-H460 [14] = experiment: Antitumor activity against human H460 cells xenografted in CD-1 Foxn1 nude mouse assessed as reduction in colony forming cells under hypoxic condition at 13.3 umol/kg, iv treated 5 mins after gamma irradiation measured after 18 hrs by excision assay; format: functional, organism-based
NCI-H460 [15] = experiment: Antitumor activity against human H460 cells xenografted in CD-1 Foxn1 nude mouse assessed as reduction in colony forming cells under hypoxic condition at 23.7 umol/kg, iv treated 5 mins after gamma irradiation measured after 18 hrs by excision assay; format: functional, organism-based
SiHa [16] = experiment: Antitumor activity against human SiHa cells xenografted in CD-1 Foxn1 nude mouse assessed as reduction in colony forming cells under hypoxic condition at 23.7 umol/kg, iv treated 5 mins after gamma irradiation measured after 18 hrs by excision assay; format: functional, organism-based

Compound	Activity (HT-29 [1])	Activity (HT-29 [2])	Ratio IC50 (HT-29 [3])	Ratio IC50 (SiHa [4])	Activity (SiHa [5])	Activity (SiHa [6])	further results
CN(C)CCOc1ccc2[nH]c(C(=O)N3CC(CCl)c4c3cc([N+](=O)[O-])c3cc(C(=O)NCCO)ccc43)cc2c1 (stereo not given)	Active	Active	–	–	–	–	–
Nc1cc2c(c3ccc(S(=O)(=O)NCCO)cc13)C(CCl)CN2C(=O)c1ccc(OCCN2CCOCC2)cc1 (stereo not given)	Active	Active	1	1	Active	Active	–
CN(C)CC(=O)Nc1ccc2[nH]c(C(=O)N3CC(CCl)c4c3cc(N)c3cc(S(=O)(=O)NCCO)ccc43)cc2c1 (stereo not given)	Active	Active	1	1	Active	Active	–
O=C(c1cc2cc(OCCN3CCOCC3)ccc2[nH]1)N1CC(CCl)c2c1cc([N+](=O)[O-])c1cc(S(=O)(=O)NCCO)ccc21 (stereo not given)	inactive	–	–	–	inactive	–	–
O=C(/C=C/c1ccc(OCCN2CCOCC2)cc1)N1CC(CCl)c2c1cc([N+](=O)[O-])c1cc(S(=O)(=O)NCCOP(=O)(O)O)ccc21 (stereo not given)	–	–	–	–	–	–	Activity (SiHa [7]): Active; Activity (NCI-H460 [8]): Active; Activity (NCI-H460 [9]): >1
CN(C)CCOc1ccc2[nH]c(C(=O)N3CC(CCl)c4c3cc(N)c3cc(S(=O)(=O)NCCO)ccc43)cc2c1 (stereo not given)	Active	Active	1	1	Active	Active	–
CN(C)CC(=O)Nc1ccc2[nH]c(C(=O)N3CC(CCl)c4c3cc([N+](=O)[O-])c3cc(S(=O)(=O)NCCOP(=O)(O)O)ccc43)cc2c1 (stereo not given)	–	–	–	–	–	–	Activity (Mus musculus [10]): Non-Toxic; Activity (Mus musculus [11]): Non-Toxic
O=C(/C=C/c1ccc(OCCCN2CCOCC2)cc1)N1CC(CCl)c2c1cc([N+](=O)[O-])c1cc(S(=O)(=O)NCCOP(=O)(O)O)ccc21 (stereo not given)	–	–	–	–	–	–	Activity (SiHa [7]): Active; Activity (NCI-H460 [8]): Active
O=C(CCN1CCOCC1)N1CC(CCl)c2c1cc([N+](=O)[O-])c1cc(S(=O)(=O)NCCOP(=O)(O)O)ccc21 (stereo not given)	–	–	–	–	–	–	Activity (SiHa [7]): Active; Activity (NCI-H460 [8]): inactive
CN(C)CCC(=O)Nc1ccc2[nH]c(C(=O)N3CC(CCl)c4c3cc([N+](=O)[O-])c3cc(S(=O)(=O)NCCOP(=O)(O)O)ccc43)cc2c1 (stereo not given)	–	–	–	–	–	–	Activity (Mus musculus [12]): Toxic; Activity (Mus musculus [13]): Toxic
Nc1cc2c(c3ccc(S(=O)(=O)NCCO)cc13)C(CCl)CN2C(=O)c1cc2cc(OCCN3CCOCC3)ccc2[nH]1 (stereo not given)	Active	Active	1	1	Active	Active	–
CN(C)CCC(=O)Nc1ccc2[nH]c(C(=O)N3CC(CCl)c4c3cc(N)c3cc(S(=O)(=O)NCCO)ccc43)cc2c1 (stereo not given)	Active	Active	1	1	Active	Active	–
Nc1cc2c(c3ccc(S(=O)(=O)NCCO)cc13)C(CCl)CN2C(=O)/C=C/c1ccc(OCCN2CCOCC2)cc1 (stereo not given)	Active	Active	1	1	Active	Active	–
COc1cc2cc(C(=O)N3CC(CCl)c4c3cc(N)c3cc(S(=O)(=O)NCCO)ccc43)[nH]c2c(OC)c1OC (stereo not given)	Active	Active	1	1	Active	Active	–
CN(C)CCCOc1ccc2[nH]c(C(=O)N3CC(CCl)c4c3cc(N)c3cc(S(=O)(=O)NCCO)ccc43)cc2c1 (stereo not given)	Active	Active	1	1	Active	Active	–
CN(C)CCCOc1ccc2[nH]c(C(=O)N3CC(CCl)c4c3cc([N+](=O)[O-])c3cc(S(=O)(=O)NCCOP(=O)(O)O)ccc43)cc2c1 (stereo not given)	–	–	–	–	–	–	Activity (NCI-H1299): Active; Activity (HCT-116): Active; Activity (CWR22R): Active
CN(C)Cc1ccc2[nH]c(C(=O)N3CC(CCl)c4c3cc(N)c3cc(S(=O)(=O)NCCO)ccc43)cc2c1 (stereo not given)	Active	Active	1	1	Active	Active	–

Compound	Activity (HT-29 [1])	Activity (HT-29 [2])	Ratio IC50 (HT-29 [3])	Ratio IC50 (SiHa [4])	Activity (SiHa [5])	Activity (SiHa [6])	further results
O=C(c1ccc(OCCN2CCOCC2)cc1)N1CC(CCl)c2c1cc([N+](=O)[O-])c1cc(S(=O)(=O)NCCOP(=O)(O)O)ccc21 (stereo not given)	–	–	–	–	–	–	Activity (SiHa [7]): Active; Activity (NCI-H460 [14]): inactive
Nc1cc2c(c3ccc(S(=O)(=O)NCCO)cc13)C(CCl)CN2C(=O)c1cc2cc(OCCCN3CCOCC3)ccc2[nH]1 (stereo not given)	Active	Active	1	1	Active	Active	–
CN(C)CCCOc1ccc2[nH]c(C(=O)N3CC(CCl)c4c3cc([N+](=O)[O-])c3cc(S(=O)(=O)NCCO)ccc43)cc2c1 (stereo not given)	–	–	27 - 68	27 - 68	–	–	–
CCN(CC)CCOc1ccc2[nH]c(C(=O)N3CC(CCl)c4c3cc([N+](=O)[O-])c3cc(S(=O)(=O)NCCOP(=O)(O)O)ccc43)cc2c1 (stereo not given)	–	–	–	–	–	–	Activity (NCI-H460 [15]): inactive; Activity (SiHa [16]): Active
CCN(CC)CCOc1ccc2[nH]c(C(=O)N3CC(CCl)c4c3cc(N)c3cc(S(=O)(=O)NCCO)ccc43)cc2c1 (stereo not given)	Active	Active	1	1	Active	Active	–
O=C(NCCOP(=O)(O)O)c1ccc2c3c(cc([N+](=O)[O-])c2c1)N(C(=O)c1cc2cc(OCCN4CCOCC4)ccc2[nH]1)CC3CCl (stereo not given)	–	–	–	–	–	–	Activity (SiHa [7]): >1
Nc1cc2c(c3ccc(S(=O)(=O)NCCO)cc13)C(CCl)CN2C(=O)/C=C/c1ccc(OCCCN2CCOCC2)cc1 (stereo not given)	Active	Active	1	1	Active	Active	–
CN(C)Cc1ccc2[nH]c(C(=O)N3CC(CCl)c4c3cc([N+](=O)[O-])c3cc(S(=O)(=O)NCCO)ccc43)cc2c1 (stereo not given)	–	–	27 - 68	27 - 68	–	–	–
CN(C)c1ccc2[nH]c(C(=O)N3CC(CCl)c4c3cc(N)c3cc(S(=O)(=O)NCCO)ccc43)cc2c1 (stereo not given)	Active	Active	1	1	Active	Active	–
Nc1cc2c(c3ccc(S(=O)(=O)NCCO)cc13)C(CCl)CN2C(=O)CCN1CCOCC1 (stereo not given)	Active	Active	1	1	Active	Active	–
CN(C)CCOc1ccc2[nH]c(C(=O)N3CC(CCl)c4c3cc([N+](=O)[O-])c3cc(S(=O)(=O)NCCO)ccc43)cc2c1 (stereo not given)	Active	Active	–	–	–	–	–
O=C(NCCOP(=O)(O)O)c1ccc2c3c(cc([N+](=O)[O-])c2c1)N(C(=O)/C=C/c1ccc(OCCN2CCOCC2)cc1)CC3CCl (stereo not given)	–	–	–	–	–	–	Activity (SiHa [7]): Active; Activity (NCI-H460 [8]): Active
CN(C)Cc1ccc2[nH]c(C(=O)N3CC(CCl)c4c3cc([N+](=O)[O-])c3cc(S(=O)(=O)NCCOP(=O)(O)O)ccc43)cc2c1 (stereo not given)	–	–	–	–	–	–	Activity (SiHa [7]): Active; Activity (NCI-H460 [8]): inactive
O=C(c1cc2cc(OCCCN3CCOCC3)ccc2[nH]1)N1CC(CCl)c2c1cc([N+](=O)[O-])c1cc(S(=O)(=O)NCCOP(=O)(O)O)ccc21 (stereo not given)	–	–	–	–	–	–	Activity (SiHa [7]): >1; Activity (NCI-H460 [8]): Active; Activity (NCI-H1299): Active; Activity (HCT-116): Active; Activity (CWR22R): Active
O=C(c1cc2cc(OCCCN3CCOCC3)ccc2[nH]1)N1CC(CCl)c2c1cc([N+](=O)[O-])c1cc(S(=O)(=O)NCCO)ccc21 (stereo not given)	inactive	–	–	–	inactive	–	–
CCN(CC)CCOc1ccc2[nH]c(C(=O)N3CC(CCl)c4c3cc([N+](=O)[O-])c3cc(S(=O)(=O)NCCO)ccc43)cc2c1 (stereo not given)	–	–	27 - 68	27 - 68	–	–	–
CN(C)CCOc1ccc2[nH]c(C(=O)N3CC(CCl)c4c3cc([N+](=O)[O-])c3cc(C(=O)NCCOP(=O)(O)O)ccc43)cc2c1 (stereo not given)	–	–	–	–	–	–	Activity (SiHa [7]): Active; Activity (NCI-H1299): Active; Activity (HCT-116): Active; Activity (CWR22R): Active
